Columns and labels:
[1] = target: S-adenosylmethionine synthase isoform type-2 (Homo sapiens, UniProt P31153); experiment: Inhibition of MAT2A (unknown origin) assessed as release of inorganic phosphate using ATP/L-methionine pre-incubated for 30 mins followed by substrate addition measured after 2.5 hrs by colorimetric assay
HCT-116 [2] = experiment: Antiproliferative activity against MTAP-knock out human HCT-116 cells assessed as proliferation inhibition rate measured after 5 days by CTG assay; assay type: functional, cell-based; settings: HCT-116, 120 h
HCT-116 [3] = experiment: Antiproliferative activity against MTAP-knock out human HCT-116 cells assessed as maximal inhibition rate at 10 uM measured after 5 days by CTG assay relative to control; assay type: functional; settings: time 5 day
[4] = Lipophilicity, log D of compound at pH 7.4 byHPLC method; assay type: physicochemical; settings: buffer
[5] = Microsomal metabolic stability in human liver microsomes assessed as clearance; assay type: ADME, Microsome; settings: read-out: CLH
[6] = Microsomal metabolic stability in mouse liver microsomes assessed as clearance; assay type: ADME, Microsome; settings: read-out: CLH
[7] = Clearance in male ICR mouse at 10 mg/kg, po and 2 mg/kg, iv measured upto 24 hrs; assay type: ADME, organism-based; settings: in vivo
[8] = Volume of distribution at steady state in male ICR mouse at 10 mg/kg, po and 2 mg/kg, iv measured upto 24 hrs; assay type: ADME, organism-based; settings: in vivo
[9] = Half life in male ICR mouse at 10 mg/kg, po and 2 mg/kg, iv measured upto 24 hrs; assay type: ADME, organism-based; settings: in vivo
[10] = AUC (0 to infinity) in male ICR mouse at 10 mg/kg, po and 2 mg/kg, iv measured upto 24 hrs; assay type: ADME, organism-based; settings: in vivo

S-adenosylmethionine synthase isoform type-2, sequence (P31153 whole entry, canonical isoform): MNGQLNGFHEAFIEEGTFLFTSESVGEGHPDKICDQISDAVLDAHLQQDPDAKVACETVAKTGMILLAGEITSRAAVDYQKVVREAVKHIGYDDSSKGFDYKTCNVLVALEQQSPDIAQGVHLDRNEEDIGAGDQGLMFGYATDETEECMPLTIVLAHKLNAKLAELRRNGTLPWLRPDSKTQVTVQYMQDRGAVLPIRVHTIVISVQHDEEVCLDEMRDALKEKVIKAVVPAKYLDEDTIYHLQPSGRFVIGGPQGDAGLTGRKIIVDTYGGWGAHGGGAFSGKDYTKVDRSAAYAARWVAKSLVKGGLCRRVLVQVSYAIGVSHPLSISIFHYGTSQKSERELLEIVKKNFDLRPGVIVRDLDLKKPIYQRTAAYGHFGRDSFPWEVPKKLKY

| Compound | IC50 [1] | IC50 (HCT-116 [2]) | logD [4] | CLint scaled [5] | CLint scaled [6] | clearance [7] | Vdss [8] | half-life [9] | AUC(0-inf) [10] | Imax (HCT-116 [3]) |
| --- | --- | --- | --- | --- | --- | --- | --- | --- | --- | --- |
| COc1cc(NC2=NC(=O)C3(CCc4ncccc43)c3cc(C(F)(F)F)ccc32)ccn1 (racemic) | 12 nM | 180 nM | 3.29 |  |  |  |  |  |  | 56.22% |
| CNC1=NC(=O)C2(CCc3cccnc32)c2nc(C(F)(F)F)ccc21 (stereo not drawn) | 591 nM |  |  |  |  |  |  |  |  |  |
| CNC1=NC(=O)C2(CCc3c(C#N)cccc32)c2nc(C(F)(F)F)ccc21 (stereo not drawn) | 18 nM | 1100 nM |  | < 9.3 mL/min/kg | 48.2 mL/min/kg |  |  |  |  | 76.16% |
| CNc1nc(=O)n(-c2ccccc2Cl)c2nc(C(F)(F)F)ccc12 (single isomer, unassigned; atropisomer 2) | 86 nM |  |  |  |  |  |  |  |  |  |
| O=C1N=C(NC2CC(F)(F)C2)c2ccc(C(F)(F)F)cc2C12CCc1ncccc12 (racemic) | 5 nM | 283 nM | 2.88 |  |  |  |  |  |  | 77.73% |
| CNC1=NC(=O)C2(Cc3ccccc3C2)c2nc(C(F)(F)F)ccc21 | 55 nM |  |  |  |  |  |  |  |  |  |
| CNC1=NC(=O)C2(CCc3ccccc32)c2nc(C(F)(F)F)ccc21 (stereo not drawn) | 7 nM | 17 nM |  | < 9.3 mL/min/kg | 59 mL/min/kg | 29.3 mL/min/kg | 3.665 L/kg | 2.05 h | 6020 ng·h/mL | 77.71% |
| CN(C)C1=NC(=O)C2(CCc3ncccc32)c2cc(C(F)(F)F)ccc21 (racemic) | 19 nM | 119 nM | 2.24 |  |  |  |  |  |  | 79.25% |
| CNC1=NC(=O)C2(CCc3ccc(F)cc32)c2nc(C(F)(F)F)ccc21 (stereo not drawn) | 55 nM | 23300 nM |  |  |  |  |  |  |  | 52.53% |
| CNC1=NC(=O)C2(CCc3c(Br)cccc32)c2nc(C(F)(F)F)ccc21 (stereo not drawn) | 18 nM |  |  |  |  |  |  |  |  |  |
| CNC1=NC(=O)C2(CCc3c(F)cccc32)c2nc(C(F)(F)F)ccc21 (stereo not drawn) | 11 nM | 105 nM |  | 13.4 mL/min/kg | 118 mL/min/kg |  |  |  |  | 86.45% |
| CNC1=NC(=O)C2(CCc3ncccc32)c2nc(C(F)(F)F)ccc21 (stereo not drawn) | 9 nM | 149 nM |  | < 9.3 mL/min/kg | 67 mL/min/kg | 9.06 mL/min/kg | 2.42 L/kg | 3.35 h | 18600 ng·h/mL | 87.63% |
| O=C1N=C(NC2COC2)c2ccc(C(F)(F)F)cc2C12CCc1ncccc12 (racemic) | > 3000 nM |  | 1.57 |  |  |  |  |  |  |  |
| CNC1=NC(=O)C2(CC(C)(C)c3ccccc32)c2nc(C(F)(F)F)ccc21 (stereo not drawn) | 78 nM | > 10000 nM |  |  |  |  |  |  |  |  |
| [2H]C([2H])([2H])NC1=NC(=O)[C@]2(CCc3ncccc32)c2cc(C(C)(F)F)c(F)cc21 | 4 nM | 70 nM | 1.87 | < 9.3 mL/min/kg | < 29.3 mL/min/kg | 11.2 mL/min/kg | 1.15 L/kg | 1.58 h | 14200 ng·h/mL | 85.98% |
| COC1(C(=O)N2Cc3nc(Cl)nc(N[C@H](C)c4cc(N)cc(C(F)(F)F)c4)c3C2)CCOCC1 |  |  |  | < 9.3 mL/min/kg | < 9.3 mL/min/kg |  |  |  |  |  |
| CNC1=NC(=O)C2(CCCc3ccccc32)c2nc(C(F)(F)F)ccc21 (stereo not drawn) | 12 nM | 57 nM |  | 24.1 mL/min/kg | 193 mL/min/kg |  |  |  |  | 74.25% |
| CNC1=NC(=O)C2(CCc3cc(F)ccc32)c2nc(C(F)(F)F)ccc21 (stereo not drawn) | 33 nM | 4710 nM |  | < 9.3 mL/min/kg | 71.6 mL/min/kg |  |  |  |  | 55.77% |
| CNC1=NC(=O)C2(COc3ccccc32)c2nc(C(F)(F)F)ccc21 (stereo not drawn) | 115 nM | 5080 nM |  |  |  |  |  |  |  | 51.99% |
| CNC1=NC(=O)C(C)(c2ccccc2)c2nc(C(F)(F)F)ccc21 (stereo not drawn) | 57 nM |  |  |  |  |  |  |  |  |  |
| Nc1nc(=O)n(-c2ccccc2Cl)c2nc(C(F)(F)F)ccc12 (single isomer, unassigned; atropisomer A) | 3 nM |  |  |  |  |  |  |  |  |  |
| CNC1=NC(=O)C2(OCc3ccccc32)c2nc(C(F)(F)F)ccc21 (stereo not drawn) | > 3000 nM |  |  |  |  |  |  |  |  |  |
| O=C1N=C(NCC(F)(F)F)c2ccc(C(F)(F)F)cc2C12CCc1ncccc12 (racemic) | 10 nM | 263 nM | 2.73 | < 9.3 mL/min/kg | < 29.3 mL/min/kg |  |  |  |  | 101.9% |
| CNc1nc(=O)n(-c2ccccc2Cl)c2nc(C(F)(F)F)ccc12 (single isomer, unassigned; atropisomer 1) | 3 nM |  |  |  |  |  |  |  |  |  |
| CNC1=NC(=O)C2(CCc3cccc(F)c32)c2nc(C(F)(F)F)ccc21 (stereo not drawn) | 24 nM | 225 nM |  |  |  |  |  |  |  | 71.66% |

Now from value to compound, other results behind:

| IC50 [1] | IC50 (HCT-116 [2]) | logD [4] | CLint scaled [5] | CLint scaled [6] | clearance [7] | Vdss [8] | half-life [9] | AUC(0-inf) [10] | Compound | Imax (HCT-116 [3]) |
| --- | --- | --- | --- | --- | --- | --- | --- | --- | --- | --- |
| 47 nM | 1060 nM | 1.1 |  |  |  |  |  |  | CNC1=NC(=O)C2(CCc3ncccc32)c2cc(C3CC3)ncc21 (stereo not drawn) | 79.52% |
| 4 nM | 49 nM | 2.2 | < 9.3 mL/min/kg | 38.9 mL/min/kg | 11.4 mL/min/kg | 1.02 L/kg | 2.1 h | 12300 ng·h/mL | [2H]C([2H])([2H])NC1=NC(=O)[C@]2(CCc3ncccc32)c2cc(C3CC3)c(F)cc21 | 77% |
| 8 nM | 193 nM | 1.36 |  |  |  |  |  |  | CNC1=NC(=O)C2(CCc3ncccc32)c2cc(OC(F)F)ccc21 (stereo not drawn) | 83.08% |
| 4 nM | 55 nM | 1.92 | 11.2 mL/min/kg | 63 mL/min/kg | 13.1 mL/min/kg | 1.26 L/kg | 1.47 h | 22000 ng·h/mL | [2H]C([2H])([2H])NC1=NC(=O)[C@]2(CCc3ncccc32)c2cc(C3CC3)ccc21 | 78.6% |
| 4 nM | 146 nM | 2.77 |  |  |  |  |  |  | O=C1N=C(NC2CC2)c2ccc(C(F)(F)F)cc2C12CCc1ncccc12 (racemic) | 71.61% |
| 64 nM |  | 2.4 |  |  |  |  |  |  | C=C(c1ccc2c(c1)C1(CCc3ncccc31)C(=O)N=C2NC)C(F)(F)F (stereo not drawn) |  |
| 6 nM | 405 nM | 2.55 |  |  |  |  |  |  | CNC1=NC(=O)C2(CCc3ncccc32)c2cc(C(F)(F)C(F)(F)F)ccc21 (stereo not drawn) | 66.34% |
| 9 nM | 101 nM | 1.57 | < 9.3 mL/min/kg | 55 mL/min/kg |  |  |  |  | CNC1=NC(=O)C2(CCc3ncccc32)c2cc(C(C)(F)F)ccc21 (stereo not drawn) | 100% |
| 16 nM | 2440 nM | 1.95 |  |  |  |  |  |  | CNC1=NC(=O)C2(CCc3ncccc32)c2cc(C=C(F)F)ccc21 (stereo not drawn) | 96.49% |
| 4 nM | 83 nM | 2.24 | < 9.3 mL/min/kg | 38.9 mL/min/kg |  |  |  |  | CNC1=NC(=O)C2(CCc3ncccc32)c2cc(C3CC3)c(F)cc21 (stereo not drawn) | 84.78% |
| 13 nM | 240 nM | 2.21 |  |  |  |  |  |  | CNC1=NC(=O)C2(CCc3ncccc32)c2cc(C3CC3)cc(F)c21 (stereo not drawn) | 78.29% |
| 6 nM | 66 nM | 1.92 | 12.3 mL/min/kg | 85.7 mL/min/kg |  |  |  |  | CNC1=NC(=O)C2(CCc3ncccc32)c2cc(C3CC3)ccc21 (stereo not drawn) | 97.11% |
